Positions of bridges follow the written chain, without caps; N, C: chain ends. No end group written: not given here.
Experiments:
[1] = biological target: T1, hP2X7 (47–334 a.a., extracellular domain, 36.8 kDa) (Homo sapiens, UniProt Q99572); experiment: Surface plasmon resonance (Biacore 3000); assay type: binding
T1 construct: hP2X7 (47–334 a.a., extracellular domain, 36.8 kDa); purchased Abbexa LTD, Cambridge, UK abx167020
T1 sequence (Q99572 47-334): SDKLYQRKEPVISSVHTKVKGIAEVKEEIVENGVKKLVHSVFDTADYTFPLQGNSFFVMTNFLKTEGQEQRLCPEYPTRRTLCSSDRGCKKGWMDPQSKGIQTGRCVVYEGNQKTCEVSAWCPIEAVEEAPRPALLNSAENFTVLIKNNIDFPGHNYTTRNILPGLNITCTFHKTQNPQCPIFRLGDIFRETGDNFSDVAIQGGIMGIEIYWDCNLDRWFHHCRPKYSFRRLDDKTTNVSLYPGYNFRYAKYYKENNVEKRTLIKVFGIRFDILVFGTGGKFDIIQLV
Protocol: SPR analysis was performed at 25 °C using a Biacore® 3000 optical biosensor (GE Healthcare, Chicago, IL, USA) and CM5 sensor chips. HBS-N (10 mM HEPES, 150 mM NaCl, pH 7.4) (Cytiva, Chicago, IL, USA) was used as a working buffer for the immobilization of hP2X7 (47–334 a.a., extracellular domain, 36.8 kDa) (abx167020 Abbexa LTD, Cambridge, UK). The carboxyl groups of the dextran biosensor chip were activated for 5 min by introducing a 1:1 mixture of 0.2 M 1-ethyl-3-(3-dimethylaminopropyl)carbodiimide hydrochloride (EDC) and 0.05 M N-hydroxysuccinimide (NHS) at a rate of 5 µL/min followed by a 1 min wash with HBS-N buffer at the same flow rate. Next, hP2X7 (15 μg/mL) in 10 mM sodium acetate (pH 5.0) was injected into the working channel of the biosensor for 10 min at a flow rate of 5 μL/min. The final level of immobilization was 12300 RU (12.3 ng of protein). The control channel without immobilized P2X7R was used to correct the effects of the nonspecific binding of analytes to the chip surface.
Lyophilized peptides were prepared as 100 μM stock solutions in HBS-N buffer. Experimental peptide samples were prepared in the range of 5–100 μM. The samples were injected through the channels of the biosensor (working and reference) at a flow rate of 10 μL/min for 6 min. The dissociation of the formed peptide/P2X7 complexes was recorded for at least 6 min from the moment of injection at the same flow rate after the injection of the sample. After each cycle of the biosensor, the bound analyte was removed by double injection of the regenerating solution (2 M NaCl, 1% CHAPS) at a flow rate of 30 μL/min for 30 s.
SPR sensorgrams were processed in Biacore 3000 Evaluation Software v.1.0 (GE Healthcare, Chicago, IL, USA) and BIAevaluation Software v. 4.1.1 (GE Healthcare, Chicago, IL, USA) using “1:1 binding (Langmuir)” and “two-state binding (conformational change)” data processing models.
The 1:1 (Langmuir) binding model is a 1:1 interaction model between a compound (C) and an immobilized protein (P) and is equivalent to the Langmuir isotherm for surface adsorption: C + P ↔ CP.
The two-state binding (conformational change) model describes the 1:1 binding of a compound (C) to an immobilized protein (P) followed by a conformational change in the complex (CP ↔ CP*). It is assumed that the conformationally changed complex can dissociate only by the reverse conformational change: C + P ↔ CP ↔ CP*. The final kinetic parameters were obtained from the models that best agree with the experimental curves for the minimum of the obtained value of chi2. The equations describing the models used are as follows: • (1) 1:1 (Langmuir) binding: Kd = koff/kon, where Kd is the equilibrium dissociation constant, koff is the dissociation rate constant, kon is the association rate constant. • (2) Reaction of two states (with conformational change): Kd = koff1/kon1 × (1 + kon2/koff2) − 1, where Kd is the equilibrium dissociation constant, koff1 is the dissociation rate constant, kon1 is the association rate constant, kon2 is the direct association rate constant for the CP ↔ transition CP*, koff2 is the inverse dissociation rate constant for the CP ↔ CP* transition.
The model describing the interaction was chosen according to the lowest chi2 parameter’s value. Chi2 is a measure of the average squared residual between the experimental data and the fitted curve.

P2X7 in Neuro-2a cells = experiment: P2X7 immunofluorescence / expression (confocal microscopy); assay type: cell-based, mouse; conditions: 10 μM peptide, 24 h
Protocol: Neuro-2a cells on coverslips were washed once with PBS, fixed with cold 100% methanol for 5 min in an ice bath, and then washed (3 × 5 min) with PBS. For P2X7 receptor immunocytochemistry, cells were blocked with 10% bovine serum in PBS containing 0.1% Triton X-100 (1 h) and incubated with specific to P2X7 primary antibodies (1:1000; orb35965 Biorbyt Ltd., Cambridge, UK) overnight at 4 °C. Cells were washed with PBS (3 × 10 min) and incubated with Alexa Fluor 594-conjugated goat anti-rabbit secondary antibodies (1:200, Abcam plc, Cambridge, UK) for 2 h at room temperature. Cells were washed in PBS (3 × 10 min) before mounting. In control experiments, the primary antibody was omitted, and immunostaining was never observed. Neuro-2a cell fluorescence was studied using an LSM 710 META confocal laser scanning microscope (Carl Zeiss, Göttingen, Germany) equipped with an Ar laser with an effective power of 30 mW. The obtained images were analyzed using the ZEN 2.3 (blue edition) software (Carl Zeiss, Göttingen, Germany).

[2] = model: binding with two states (CP ↔ CP* transition), 25 °C, HBS-N pH 7.4, average ± SD, n = 3
[3] = model: binding with two states, 25 °C, HBS-N pH 7.4, average ± SD, n = 3

Question: Which results are given for “RGICSEPKVVGPCKAGLRRFYYDSETGECKPFIYGGCKGNKNNFETLHACRGICRA (disulfide 4-54, 13-37, 29-50 (inferred)) [HCRG1]”?
Answer: affinity to P2X7 ([1]; SPR, peptides 5–100 μM): highest affinity; koff2 [1, 2]: (1.5 ± 0.20) × 10^−3 c^−1; kon2 [1, 2]: (8.5 ± 1.0) × 10^−3 mole^−1c^−1; koff1 [1, 3]: (4.37 ± 0.57) × 10^−2 c^−1; kon1 [1, 3]: (9.20 ± 1.10) × 10^2 mole^−1c^−1; Kd ([1]; model: binding with two states, 25 °C, HBS-N pH 7.4, n = 3): 7.13 µM; amount of P2X7 in Neuro-2a cells (P2X7 in Neuro-2a cells): significantly reduced the amount of P2X7 in Neuro-2a cells; decrease in P2X7 fluorescence (P2X7 in Neuro-2a cells; mean ± SE, n = 3, p < 0.05): 24.1 ± 3.2%

Source: article PMC10053369, “Recombinant Analogs of Sea Anemone Kunitz-Type Peptides Influence P2X7 Receptor Activity in Neuro-2a Cells” (Marine Drugs, 2023)
